In US20140135327A1, “N- (2 -AMINOPHENYL) BENZAMIDE DERIVATIVES AS HISTONE DEACETYLASE INHIBITORS” (CANCER RESEARCH TECHNOLOGY LIMITED, priority 2011, published 2014):

Key:
[1] = system: CYP26 RNA expression in NB4 cells; assay: CYP26 RNA expression in NB4 cells (Q-RT-PCR); assay type: cell-based; conditions: 1 day, normalised to BACT, control set to 1.0
Procedure: (§1) HL60 or NB4 cells were cultured at 1.0×10^6 cells/ml in complete growth medium. Cells (10 ml) were then treated with ATRA, the compound of Example 7(MI-192), or left untreated as controls. After 1 day, the expression of CYP26 and BACT RNAs were determined using quantitative PCR (Taqman). The expression of CYP26 RNA was normalised to BACT, and expression in control cells was set to 1.0.

[2] = system: CYP26 RNA expression in HL60 cells; assay: CYP26 RNA expression in HL60 cells (Q-RT-PCR); assay type: cell-based
Procedure: as §1

[3] = system: NB4 cells; assay: MTS assay, growth inhibition in NB4 cells; assay type: cell-based; conditions: after 3 days (FIG. 2(i) legend: 4 day), absorbance 490 nm relative to untreated cells
Procedure: (§2) HL60 or NB4 cells were diluted in complete growth medium and plated at a density of 5000 cells per 0.1 ml in wells of a 96 well plate. Cells were then treated with various concentrations of the compound of Example 7 (MI-192) or were left untreated as a control in a total volume of 0.2 ml of complete growth medium. After 3 days, relative cell numbers were determined using the MTS assay, as described by the manufacturer (Promega, Southampton, UK). The results shown in FIG. 2(i) are absorbance (490 nm) relative to control cells (untreated cells 100%).

[4] = system: HL60 cells; assay: CD11b flow cytometry, differentiation in HL60 cells; assay type: cell-based; conditions: 3 days
Procedure: HL60 cells were cultured at 0.5×10^6 cells/ml in complete growth medium. Cells (2 ml) were then treated with ATRA (sourced commercially), the compound of Example 7 (MI-192), or left untreated as controls. After 3 days, CD11b expression was determined by flow cytometry using a PE-conjugated anti-CD11b monoclonal antibody.

[5] = system: HL60 cells; assay: MTS assay, growth inhibition in HL60 cells; assay type: cell-based; conditions: after 3 days (FIG. 2(i) legend: 4 day), absorbance 490 nm relative to untreated cells
Procedure: as §2

Row | SMILES | CYP26 RNA expression [1] | transcription modulating activity compared with ATRA [2] | CYP26 RNA expression ([2]; 1 day, Q-RT-PCR, normalised to BACT, control set to 1.0) | growth inhibition (MTS assay) [3] | differentiation (CD11b expression, flow cytometry) [4] | growth inhibition (MTS assay) [5] | melting point [°C]
1 | C=C1CN(Cc2ccc(C(=O)Nc3ccccc3N)cc2)C(=O)c2ccccc21 [Example 7, N-(2-Aminophenyl)-4-[(4-methylene-1-oxo-3,4-dihydroisoquino-2(1H)-yl)methyl]benzamide] | induces expression of CYP26 | exceeded that of ATRA | induces expression of CYP26 | promotes growth inhibition | promotes growth inhibition and differentiation | promotes growth inhibition | –
2 | C=C1CN(Cc2ccc(C(=O)Nc3ccccc3N)cc2)C(CC(=O)O)c2ccccc21 (stereo not shown) [Example 9, [2-(4-{[(2-Aminophenyl)amino]carbonyl}benzyl)-4-methylene-1,2,3,4-tetra hydroisoquinolin-1-yl]acetic acid] | – | – | – | – | – | – | > 230
